In patent US20210071180A1, “MICRORNA 584-5P COMPOSITIONS AND METHODS FOR TREATING CANCER” (BOARD OF REGENTS, THE UNIVERSY OF TEXAS SYSTEM, priority 2018, published 2021):

Columns and labels:
melanoma cells = conditions: cited from earlier work
D458Med cells = experiment: miRNA mimic library screen, CellTiter-Glo cell viability; type: cell-based; conditions: D458Med cells, 72 hours
Procedure: To identify miRNAs that may sensitize VCR response in MB, a high-throughput screening platform was combined with a library of 1,902 chemically synthesized human miRNA mimics. The miRNAs are arrayed in a one-miRNA-one-well format in 96-well microtiter plates. Reverse transfection of Group 3/c-Myc-amplified D458Med cells was performed in triplicate in the presence and absence of a sublethal dose of VCR, which was optimized in four MB cell lines before the screen (FIG. 2A). Cells were subjected to VCR at an IC20 lethal concentration for 72 hours after 48 hours of transfection, and cell viability was measured (FIG. 1A). Candidate miRNAs were prioritized for validation by functional and interaction assays using standard Student t-tests (with pooled variance), false discovery rate (Q=0.5%), and by using the magnitude of response (lowest 2.5 percentile of the distribution of the μVCR/μControl ratios).
miRNA mimic library screen. The primary screen was conducted using MI00200 MISSION microRNA Mimic v.17, in which miRNA mimics were arrayed in a one-miRNA-one-well format in 96-well microtiter plates. […] Cell viability was assessed using CellTiter-Glo (Promega, Madison, Wis., USA) according to the manufacturer's protocol. ath-miR-416 or cel-miR-243 was added as a negative control, whereas siRNA against PLK-1 was used as a positive control in each plate. […]

Compound | RAD51 expression (melanoma cells) | homologous recombination (HR) (melanoma cells) | 20% inhibitory concentration (D458Med cells)
Nc1ccccc1NC(=O)c1ccc(CNC(=O)OCc2cccnc2)cc1 [MS-275] | decreases RAD51 expression | blocks HR | 
CC[C@]1(O)C[C@H]2CN(CCc3c([nH]c4ccccc34)[C@@](C(=O)OC)(c3cc4c(cc3OC)N(C=O)[C@H]3[C@@](O)(C(=O)OC)[C@H](OC(C)=O)[C@]5(CC)C=CCN6CC[C@]43[C@@H]65)C2)C1 [VCR, vincristine, reference compound] |  |  | 2 nM
